Values after ≈ are worked out from the molar mass of the structure shown.
What was measured:
HCMV wild-type = assay: HCMV yield assay; type: cell-based, human cytomegalovirus; conditions: human foreskin fibroblasts; for IC50: Human betaherpesvirus 5, Fibroblast, read-out: IC50 Ug/ml HCMV
Summary of the method: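 HCMV wild-type infected human foreskin fibroblast monolayers at MOI typically 0.2 with varying compound concentrations; virus yield harvested at 3 days post-infection and titered on fibroblasts without inhibitor, plaques counted at 2 weeks. IC50 or IC90 = compound amount reducing yield titer by 50% or 90%.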

HSV-1 = assay: HSV Antiviral (ELISA) Assay; type: cell-based, herpes simplex virus type 1; conditions: Vero cells, HSV-1; for IC50: Human alphaherpesvirus 1, Vero, read-out: IC50 Ug/ml HSV
Summary of the method: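 Vero cells in DMEM/2% FBS pretreated with compound 30 min before HSV-1 infection (MOI 0.006), then ~24 h at 37 °C. Viral gD detected by ELISA with β-galactosidase secondary and 4-methylumbelliferyl-galactoside (ex 365/em 450 nm); IC50 from fluorescence versus untreated infected cells.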

VZV strain Ellen = assay: VZV Antiviral (ELISA) Assay; type: cell-based, varicella-zoster virus; conditions: human foreskin fibroblast cells; for IC50 / inhibition at 10 µg/mL: Human alphaherpesvirus 3, Fibroblast; for IC50: read-out: IC50 Ug/ml VZV; for inhibition at 10 µg/mL: read-out: % inhibition 10 ug/ml VZV, 10 ug/ml
Summary of the method: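 Cell-based VZV (Ellen) spread assay in HFF, 3-day compound exposure in 2% FBS medium. Viral antigen quantified by fluorescent β-galactosidase ELISA; IC50 from inhibition of signal.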

Row | SMILES | IC50 (HCMV wild-type) | IC50 (HSV-1) | IC50 (VZV strain Ellen) | inhibition at 10 µg/mL (VZV strain Ellen) | IC50 Ug/ml HCMV (HCMV wild-type) | IC50 Ug/ml HSV (HSV-1) | % inhibition 10 ug/ml VZV (VZV strain Ellen; 10 ug/ml) | IC50 Ug/ml VZV (VZV strain Ellen)
1 | CCCCCC(=O)Nc1ccc(NC(=S)Nc2cc(Br)c(OC)cc2OC)cc1 [Example 826, Hexanoic acid {4-[3-(5-bromo-2,4-dimethoxy-phenyl)-thioureido]-phenyl}-amide] | > 10 µg/mL | 3 µg/mL (≈ 6.24 µM) | > 10 µg/mL | 30% | – | – | – | –
2 | CC(=O)Nc1ccc(NC(=S)Nc2ccc(NC(=O)CSCCN(C)C)c(Cl)c2)cc1 [Example 372, N-{4-[3-(4-Acetylamino-phenyl)-thioureido]-2-chloro-phenyl}-2-(2-dimethylamino-ethylsulfanyl)-acetamide] | > 10 µg/mL | > 10 µg/mL | > 10 µg/mL | 53% | – | – | – | –
3 | CC(=O)Nc1ccc(NC(=S)Nc2ccc(OCCO)c(Cl)c2)cc1 [Example 265, N-(4-{3-[3-Chloro-4-(2-hydroxy-ethoxy)-phenyl]-thioureido}-phenyl)-acetamide] | > 50 µg/mL | > 50 µg/mL | > 10 µg/mL | 20% | – | – | – | –
4 | CC(=O)Nc1ccc(NC(=S)Nc2ccc(C(=O)O)c(Cl)c2)cc1 [Example 898, 4-[3-(4-Acetylamino-phenyl)-thioureido]-2-chloro-benzoic acid] | > 50 µg/mL | > 50 µg/mL | > 10 µg/mL | 0% | – | – | – | –
5 | CC(=O)Nc1ccc(NC(=S)Nc2ccc(N(C)C3CCN(C)CC3)c(Cl)c2)cc1 [Example 841, N-[4-(3-{3-Chloro-4-[methyl-(1-methyl-piperidin-4-yl)-amino]-phenyl}-thioureido)-phenyl]-acetamide] | 0.9 µg/mL (≈ 2.02 µM) | > 50 µg/mL | > 10 µg/mL | 30% | – | – | – | –
6 | CCC(C)Oc1ccc(NC(=S)Nc2ccc(NC(C)=O)cc2)cc1Cl (centres unmarked) [Example 252, N-{4-[3-(4-sec-Butoxy-3-chloro-phenyl)-thioureido]-phenyl}-acetamide] | 10 µg/mL (≈ 25.5 µM) | 10 µg/mL (≈ 25.5 µM) | > 10 µg/mL | 0% | – | – | – | –
7 | COc1cc(OCc2ccccc2)c(Cl)cc1NC(=S)Nc1ccc(NC(C)=O)cc1 [Example 836, N-{4-[3-(4-Benzyloxy-5-chloro-2-methoxy-phenyl)-thioureido]-phenyl}-acetamide] | > 10 µg/mL | 8 µg/mL (≈ 17.5 µM) | 2.5 µg/mL (≈ 5.48 µM) | 92% | – | – | – | –
8 | COc1cc(OC)c(C(F)(F)F)cc1NC(=S)Nc1ccc(NC(C)=O)cc1 [Example 131, N-{4-[3-(2,4-Dimethoxy-5-trifluoromethyl-phenyl)-thioureido]-phenyl}-acetamide] | < 50 µg/mL | 15 µg/mL (≈ 36.3 µM) | > 10 µg/mL | 53% | – | – | – | –
9 | COc1cc(OCC(N)=O)c(Cl)cc1NC(=S)Nc1ccc(NC(C)=O)cc1 [Example 838, 2-{4-[3-(4-Acetylamino-phenyl)-thioureido]-2-chloro-5-methoxy-phenoxy}-acetamide] | > 10 µg/mL | > 50 µg/mL | > 10 µg/mL | 20% | – | – | – | –
10 | CC(=O)Nc1ccc(NC(=S)Nc2ccc(C(C)O)c(Cl)c2)cc1 (centres unmarked) [Example 862, N-(4-{3-[3-Chloro-4-(1-hydroxy-ethyl)-phenyl]-thioureido}-phenyl)-acetamide] | 2 µg/mL (≈ 5.5 µM) | > 10 µg/mL | > 10 µg/mL | 10% | – | – | – | –
11 | CC(=O)Nc1ccc(NC(=S)Nc2cc(Cl)c(O)c(Cl)c2C)cc1 [Example 129, N-{4-[3-(3,5-Dichloro-4-hydroxy-2-methyl-phenyl)-thioureido]-phenyl}-acetamide] | > 50 µg/mL | > 50 µg/mL | > 10 µg/mL | 29% | – | – | – | –
12 | CC(=O)Nc1ccc(NC(=S)Nc2ccc(N(C)C3CCN(Cc4ccccc4)C3)c(Cl)c2)cc1 (centres unmarked) [Example 843, N-[4-(3-{4-[(1-Benzyl-pyrrolidin-3-yl)-methyl-amino]-3-chloro-phenyl}-thioureido)-phenyl]-acetamide] | 0.7 µg/mL (≈ 1.38 µM) | 5 µg/mL (≈ 9.84 µM) | > 10 µg/mL | 50% | – | – | – | –
13 | CC(=O)Nc1ccc(NC(=S)Nc2ccc(CCO)c(Cl)c2)cc1 [Example 864, N-(4-{3-[3-Chloro-4-(2-hydroxy-ethyl)-phenyl]-thioureido}-phenyl)-acetamide] | > 10 µg/mL | > 10 µg/mL | > 10 µg/mL | 21% | – | – | – | –
14 | CC(=O)Nc1ccc(NC(=S)Nc2cccc(Cl)c2Cl)cc1 [Example 926, N-{4-[3-(2,3-Dichloro-phenyl)-thioureido]-phenyl}-acetamide] | 10 µg/mL (≈ 28.2 µM) | > 10 µg/mL | > 10 µg/mL | 16% | – | – | – | –
15 | COc1cc(OCC(=O)OC(C)(C)C)c(Cl)cc1NC(=S)Nc1ccc(NC(C)=O)cc1 [Example 216, {4-[3-(4-Acetylamino-phenyl)-thioureido]-2-chloro-5-methoxy-phenoxy}-acetic acid tert-butyl ester] | > 10 µg/mL | 35 µg/mL (≈ 72.9 µM) | > 10 µg/mL | 23% | – | – | – | –
16 | CC(=O)Nc1ccc(NC(=S)Nc2ccc(NCCCN(C)C)c(Cl)c2)cc1 [Example 318, N-(4-{3-[3-Chloro-4-(3-dimethylamino-propylamino)-phenyl]-thioureido}-phenyl)-acetamide] | > 50 µg/mL | > 50 µg/mL | > 10 µg/mL | 26% | – | – | – | –
17 | COc1cc(OCCCC#N)c(Cl)cc1NC(=S)Nc1ccc(NC(C)=O)cc1 [Example 211, N-(4-{3-[5-Chloro-2-methoxy-4-(4-nitrilo-butoxy)-phenyl]-thioureido}-phenyl)-acetamide] | > 10 µg/mL | 30 µg/mL (≈ 69.3 µM) | > 10 µg/mL | 35% | – | – | – | –
18 | CC(=O)Nc1ccc(NC(=S)Nc2cc(Cl)c(OCCOC(C)=O)c(Cl)c2)cc1 [Example 897, Acetic acid 2-{4-[3-(4-acetylamino-phenyl)-thioureido]-2,6-dichloro-phenoxy}-ethyl ester] | > 10 µg/mL | 40 µg/mL (≈ 87.7 µM) | > 10 µg/mL | 33% | – | – | – | –
19 | CC(=O)Nc1ccc(NC(=S)Nc2ccc(N(C)C)c(Cl)c2)cc1 [Example 240, N-{4-[3-(3-Chloro-4-dimethylamino-phenyl)-thioureido]-phenyl}-acetamide] | 1.5 µg/mL (≈ 4.13 µM) | > 50 µg/mL | > 10 µg/mL | 5% | – | – | – | –
20 | CC(=O)Nc1ccc(NC(=S)Nc2ccc(N3CCOCC3)c(Cl)c2)cc1 [Example 205, N-{4-[3-(3-Chloro-4-morpholin-4-yl-phenyl)-thioureido]-phenyl}-acetamide] | 20 µg/mL (≈ 49.4 µM) | > 50 µg/mL | > 10 µg/mL | 30% | – | – | – | –
21 | CC(=O)Nc1ccc(NC(=S)Nc2ccc(Cl)c(C(F)(F)F)c2)cc1 [Example 112, N-{4-[3-(4-Chloro-3-trifluoromethyl-phenyl)-thioureido]-phenyl}-acetamide] | 3 µg/mL (≈ 7.74 µM) | 5 µg/mL (≈ 12.9 µM) | > 10 µg/mL | 55% | – | – | – | –
22 | CC(=O)Nc1ccc(NC(=S)Nc2ccc(C)c(Cl)c2)cc1 [Example 889, N-{4-[3-(3-Chloro-4-methyl-phenyl)-thioureido]-phenyl}-acetamide] | 1.2 µg/mL (≈ 3.59 µM) | 2 µg/mL (≈ 5.99 µM) | > 10 µg/mL | 1% | – | – | – | –
23 | CC(=O)Nc1ccc(NC(=S)Nc2ccc(N3CCCCC3)c(Cl)c2)cc1 [Example 239, N-{4-[3-(3-Chloro-4-piperidin-1-yl-phenyl)-thioureido]-phenyl}-acetamide] | > 10 µg/mL | 25 µg/mL (≈ 62 µM) | > 10 µg/mL | 33% | – | – | – | –
24 | CC(=O)Nc1ccc(NC(=S)Nc2ccc(NC3CCN(Cc4ccccc4)C3)c(Cl)c2)cc1 (centres unmarked) [Example 319, N-(4-{3-[4-(1-Benzyl-pyrrolidin-3-ylamino)-3-chloro-phenyl]-thioureido}-phenyl)-acetamide] | 5 µg/mL (≈ 10.1 µM) | 6 µg/mL (≈ 12.1 µM) | 7 µg/mL (≈ 14.2 µM) | 82% | – | – | – | –
25 | CSc1ccc(NC(=S)Nc2ccc(NC(C)=O)cc2)cc1Cl [Example 840, N-{4-[3-(3-Chloro-4-methylsulfanyl-phenyl)-thioureido]-phenyl}-acetamide] | 0.4 µg/mL (≈ 1.09 µM) | 1.5 µg/mL (≈ 4.1 µM) | > 10 µg/mL | 0% | – | – | – | –
26 | CC(=O)Nc1ccc(NC(=S)Nc2ccc(N(C)CCO)c(Cl)c2)cc1 [Example 291] | – | – | – | – | 6 Ug/ml | >50 Ug/ml | 18% | >10 Ug/ml
27 | COc1cc(OC)c(NC(=S)Nc2ccc(NC(C)=O)c(OC)c2)cc1Cl [Example 274, N-{4-[3-(5-Chloro-2,4-dimethoxy-phenyl)-thioureido]-2-methoxy-phenyl}-acetamide] | > 50 µg/mL | 5 µg/mL (≈ 12.2 µM) | > 10 µg/mL | 15% | – | – | – | –
28 | CC(=O)Nc1ccc(NC(=S)Nc2ccc(F)c(Cl)c2)cc1 [Example 902, N-{4-[3-(3-Chloro-4-fluoro-phenyl)-thioureido]-phenyl}-acetamide] | 12 µg/mL (≈ 35.5 µM) | 4 µg/mL (≈ 11.8 µM) | > 10 µg/mL | 1% | – | – | – | –
29 | CC(=O)Nc1ccc(NC(=S)Nc2ccc(N(C)c3ccccc3)c(Cl)c2)cc1 [Example 842, N-(4-{3-[3-Chloro-4-(methyl-phenyl-amino)-phenyl]-thioureido}-phenyl)-acetamide] | 1.5 µg/mL (≈ 3.53 µM) | > 10 µg/mL | > 10 µg/mL | 33% | – | – | – | –
